Measurements reported in paper PMC9127117, “Towards discovery of inhibitors of the undecaprenyl-pyrophosphate phosphatase BacA by virtual high-throughput screening” (Computational and Structural Biotechnology Journal, 2022).
“Also recorded” adds a separate entry of the source.

Key:
[1] = system: BWbacA-singleΔtolC strain; assay: Growth inhibition / MIC in 2YT liquid medium; assay type: cell-based, E. coli; conditions: for MIC: BWbacA-singleΔtolC strain; for class of antibacterial activity (Figure S2): BWΔtolC and BWbacA-singleΔtolC strains, 250 and 500 µM; for growth inhibition: TolC/PAP2-depleted BWbacA-singleΔtolC, 500 µM compound
Experimental: (§1) Bacteria were grown in 2YT broth supplemented, when required, with ampicillin or kanamycin at concentrations of 100 and 50 µg/ml, respectively. The BWΔtolC strain was obtained from the Keio collection. The BWΔbacAΔtolC and BWbacA-singleΔtolC were generated by P1 transduction of the ΔtolC::Kan^R cassette from BWΔtolC strain to BWΔbacA and DMEG9 recipient strains, respectively. The strains S. aureus RN4220 and S. pneumoniae R6 were used to evaluate the antibacterial activity of certain compounds. S. aureus was grown on BHI (Brain Heart Infusion) broth and S. pneumoniae was grown on Colombia broth supplemented with 5% horse blood.
(§2) For compounds displaying inhibitory activity on BacA catalysis, their antibacterial activity was tested on different E. coli strains by monitoring bacterial growth in the presence of compounds (125, 250 and 500 µM). One colony was cultured in 10 ml of 2YT liquid medium and incubated at 37℃ for 6 h. The absorbance of the culture at 600 nm (A600) was measured to prepare a bacterial suspension in 2YT liquid medium at 15.10^6 CFU/ml (A600 = 1 corresponds to 3.10^8 CFU/ml). The bacterial suspension (200-µl) was then grown on 96-well plates in the presence or not of compounds (5-µl), which was added from a stock solution prepared in DMSO. Negative controls were then performed by growing the cells without inhibitors in 2YT medium and in 2YT medium supplemented with 2.5% of DMSO. The plates were incubated at 37℃ overnight with A600 measurements every 10 min using a Tecan F200 PRO microplate reader (iControl software).

BWΔtolC strain = assay: Growth inhibition in 2YT liquid medium (off-target activity); assay type: cell-based, E. coli; conditions: for growth inhibition: TolC-depleted BWΔtolC; for Off-target activity: antibacterial activity against BWΔtolC
Experimental: as §1, §2

PgpB = molecular target: T1, PgpB (Escherichia coli, UniProt P0A924); assay: C55-PP phosphatase assay of PgpB; assay type: biochemical, E. coli; conditions: 100 µM compound; data not shown
T1 construct: made in house
T1 sequence (P0A924 whole entry): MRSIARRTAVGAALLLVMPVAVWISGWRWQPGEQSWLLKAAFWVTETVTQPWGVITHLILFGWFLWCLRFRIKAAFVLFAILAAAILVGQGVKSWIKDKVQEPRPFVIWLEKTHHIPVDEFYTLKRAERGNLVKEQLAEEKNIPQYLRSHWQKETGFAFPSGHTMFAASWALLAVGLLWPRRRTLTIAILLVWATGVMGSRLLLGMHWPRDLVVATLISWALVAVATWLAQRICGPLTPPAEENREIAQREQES
Experimental: C43(DE3) cells carrying pTrcBac30 plasmid were used for the expression of N-terminally His6-tagged BacA (His6-BacA) protein from E. coli. Cells were grown in 2YT-ampicillin at 37 °C and when the OD600 reached 0.9, the temperature of the culture was decreased to 22 °C and protein expression was induced by addition of 1 mM IPTG. Incubation was continued overnight at 22 °C and bacteria were harvested in the cold and washed in a buffer containing 20 mM Tris-HCl, pH 7.4, 0.4 M NaCl, 10% glycerol and 10 mM β-mercaptoethanol (buffer A). The cells were disrupted by three successive passages through a French press and the suspension was centrifuged at 200,000× g, 4 °C for 45 min. The pellet of membranes was washed with buffer A. The membranes were resuspended in buffer A supplemented by 2% DDM detergent. […] Fractions containing the BacA protein were subjected to an additional gel-filtration purification step on Superdex 200 (HiLoadTM 16/600 SuperdexTM 200) equilibrated in 0.1% DDM-containing buffer A. 1-ml fractions were collected and analysed by SDS-PAGE. […]
The C55-PP phosphatase activity of BacA was assessed by measuring the percentage of transformation of [^14C]C55-PP into [^14C]C55-P upon incubation with BacA by TLC analysis. […] The radioactive spots were located and quantified with a radioactivity scanner. […] The C55-PP phosphatase activity of PgpB was measured as described for BacA.

S. pneumoniae R6 = assay: Double-disc diffusion test with bacitracin; assay type: cell-based
Experimental: To evaluate the antibacterial activity of the compounds per se or in combination with bacitracin, against S. aureus RN4220 and S. pneumoniae R6 strains, disc diffusion method was used according to the CLSI guidelines. Bacterial suspensions equivalent to 10^8 CFU/ml were prepared in 5 ml BHI broth. A BHI-agar plate (for S. aureus) or Colombia-agar plate supplemented with 5% Horse Blood (for S. pneumoniae) were then flooded with a bacterial suspension for 1 min to allow the bacteria to sediment before removing the excess of medium. The commercial discs loaded with 130 µg of bacitracin (Biorad) was positioned on top of the bacterial lawn at distances of 10 mm (center to center) from another sterile and blank disc, which was then loaded with 7 µL of a compound solution (50 µg). The plates were incubated at 37 °C for 24 h and the diameter of the growth inhibition zone was measured and a photo of the plates was acquired using a ChemiDoc™ MP System.
Figure S3. Test of antibacterial activity of BacA inhibitors against S. aureus RN4220 (A) and S. pneumonia R6 (B) strains. Bacitracin (130 µg)- and compound (50 µg)-loaded discs were positioned at 10 mm of distance on top of a bacterial lawn. The plates were incubated overnight at 37 °C. These images are representative of three independent tests. […]

BacA = BacA (Escherichia coli, UniProt P60932); conditions: for IC50 / BacA RA (%): 50 µM C55-PP, 5 nM BacA; for IC50: average of at least three experiments; for BacA RA (%): residual activity in the presence of 100 µM compound, 10 min 37 °C
Chain of BacA (P60932 whole entry): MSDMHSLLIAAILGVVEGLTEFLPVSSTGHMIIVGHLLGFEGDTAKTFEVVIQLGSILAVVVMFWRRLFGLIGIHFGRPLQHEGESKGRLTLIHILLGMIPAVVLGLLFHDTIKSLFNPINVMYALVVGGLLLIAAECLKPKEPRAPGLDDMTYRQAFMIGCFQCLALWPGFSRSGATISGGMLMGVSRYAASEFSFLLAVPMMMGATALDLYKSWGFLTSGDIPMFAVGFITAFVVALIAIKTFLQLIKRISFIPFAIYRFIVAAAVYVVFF
Experimental: C43(DE3) cells carrying pTrcBac30 plasmid were used for the expression of N-terminally His6-tagged BacA (His6-BacA) protein from E. coli. Cells were grown in 2YT-ampicillin at 37 °C and when the OD600 reached 0.9, the temperature of the culture was decreased to 22 °C and protein expression was induced by addition of 1 mM IPTG. Incubation was continued overnight at 22 °C and bacteria were harvested in the cold and washed in a buffer containing 20 mM Tris-HCl, pH 7.4, 0.4 M NaCl, 10% glycerol and 10 mM β-mercaptoethanol (buffer A). The cells were disrupted by three successive passages through a French press and the suspension was centrifuged at 200,000× g, 4 °C for 45 min. The pellet of membranes was washed with buffer A. The membranes were resuspended in buffer A supplemented by 2% DDM detergent. This mixture was incubated for 2 h at 4 °C under agitation before being centrifuged as described above. The supernatant containing solubilised membrane proteins was used for the purification of His6-BacA on Ni^2+-NTA-agarose. The supernatant was incubated overnight at 4 °C under agitation with 2 ml of Ni^2+-NTA-agarose polymer pre-equilibrated with buffer A supplemented with 10 mM imidazole and 0.2% DDM. The mixture was then transferred into a Poly-prep chromatography column (Biorad) and the polymer was washed with 50 ml of buffer A containing 0.2% DDM and successively 10 and 30 mM imidazole. The elution of BacA was then performed with buffer A containing 0.2% DDM and 400 mM imidazole. Fractions containing the BacA protein were subjected to an additional gel-filtration purification step on Superdex 200 (HiLoadTM 16/600 SuperdexTM 200) equilibrated in 0.1% DDM-containing buffer A. 1-ml fractions were collected and analysed by SDS-PAGE. Pure fractions were pooled and concentrated to 1 mg/ml (50000 MWCO concentrator, Vivaspin™ 20). […] PgpB was purified as previously described.
The C55-PP phosphatase activity of BacA was assessed by measuring the percentage of transformation of [^14C]C55-PP into [^14C]C55-P upon incubation with BacA by TLC analysis. The butanol from the [^14C]C55-PP solution was dried under vacuum so as to evaporate the organic solvent and to recover C55-PP as a lipidic film. […] The compounds (1 µL) were added to the reaction mixture at 100 µM final concentration (at the first instance) from a 2 mM stock solution prepared in DMSO. A blank experiment without compound, but with 1 µL DMSO, was performed in order to determine the 100 % of BacA activity to which all other experiments were compared. BacA (2 µL) was then added at a final concentration of 5 nM from a dilution solution prepared in the reaction buffer. The concentration of enzyme was fixed so that the consumption of substrate at the end of the incubation time in the control was less than 30%. The reaction mixture was incubated for 10 min at 37 °C and the catalysis was stopped by freezing in liquid nitrogen. The radiolabelled substrate (C55-PP) and product (C55-P) were separated by TLC on pre-coated plates of silica gel 60 (Merck) using propanol/ammonium hydroxide/water (6:3:1, v/v/v) as a mobile phase. The radioactive spots were located and quantified with a radioactivity scanner. […] Dose-response curves were plotted as BacA residual activity (RA) versus the logarithms of inhibitor concentration. […] Reported values are the average of at least three experiments. The C55-PP phosphatase activity of PgpB was measured as described for BacA.
The activity of BacA was then investigated by monitoring the initial velocity of [^14C]C55-PP dephosphorylation, as described in Material and methods section. […] The compounds were prepared as 2 mM DMSO stock solutions, resulting in a 5 % final concentration of DMSO in the reaction mixture.

[2] = system: E. coli BW25113 wild type strain; assay: Growth inhibition in 2YT liquid medium; assay type: cell-based; conditions: 500 µM compound
Experimental: as §2
(§3) Two compounds, 3 and 5, were assessed for antibacterial activity using the broth microdilution method against the E. coli BW25113 wild type strain. […] Considering the plurality of C55-PP phosphatases in E. coli, the inhibition of BacA may not induce growth inhibition as long as the PAP2 enzymes (PgpB, YbjG, and LpxT) are functional. Consequently, compounds 3 and 5 were tested against a BW25113 variant in which the PAP2 enzymes were depleted (DMEG9 strain, alias BWbacA-single). […]

[3] = system: DMEG9 strain, alias BWbacA-single; assay: Growth inhibition in 2YT liquid medium; assay type: cell-based, E. coli; conditions: PAP2-depleted DMEG9; 500 µM compound
Experimental: as §2, §3

BWΔbacAΔtolC strain = assay: Growth inhibition in 2YT liquid medium; assay type: cell-based, E. coli; conditions: BacA and TolC depleted; 500 µM compound
Experimental: as §1
For compounds displaying inhibitory activity on BacA catalysis, their antibacterial activity was tested on different E. coli strains by monitoring bacterial growth in the presence of compounds (125, 250 and 500 µM). One colony was cultured in 10 ml of 2YT liquid medium and incubated at 37℃ for 6 h. The absorbance of the culture at 600 nm (A600) was measured to prepare a bacterial suspension in 2YT liquid medium at 15.10^6 CFU/ml (A600 = 1 corresponds to 3.10^8 CFU/ml). […] The plates were incubated at 37℃ overnight with A600 measurements every 10 min using a Tecan F200 PRO microplate reader (iControl software). […]

[4] = system: BWbacA-singleΔtolC strain carrying the empty vector (pTRCH30); assay: Growth inhibition, control strain carrying the empty vector; assay type: cell-based, E. coli; conditions: 500 µM compound
Experimental: as §2
(§4) To further assess the specificity of compounds 3 and 5 with respect to BacA, they were tested against the strain depleted of both TolC and PAP2 but overexpressing an ectopic copy of the bacA gene on a plasmid.

[5] = system: BWbacA-singleΔtolC strain overexpressing an ectopic copy of the bacA gene on a plasmid; assay: Growth inhibition upon bacA overexpression; assay type: cell-based, E. coli; conditions: bacA overexpressed in trans; 500 µM compound
Experimental: as §2, §4

Compound | MIC [1] | MIC ([1]; 125, 250 and 500 µM tested) | class of antibacterial activity (Figure S2) [1] | growth inhibition [1] | growth inhibition (BWΔtolC strain; 500 µM compound) | Off-target activity (BWΔtolC strain) | IC50 (BacA) | BacA RA (%) (BacA) | other results
O=C(O)c1csc(S(=O)(=O)Nc2ccc(N3CCCC3)c(F)c2)c1 [Compound 4] | 92 µg/mL | 250 µM | antibacterial activity on both strains | total growth inhibition | moderate inhibition | Yes |  |  | growth inhibition (BWΔtolC strain; 250 µM compound): no effect; inhibition of PgpB (PgpB): not inhibited; antibacterial activity per se (inhibition zone around compound-loaded disc) (S. pneumoniae R6; 50 µg compound disc): no inhibition zone; inhibition zone of bacitracin in proximity of the compound (S. pneumoniae R6; 130 µg bacitracin disc, 50 µg compound disc at 10 mm): 10 mm
bacitracin [reference compound] |  |  |  |  |  |  |  |  | inhibition zone of bacitracin (S. pneumoniae R6; 130 µg bacitracin disc alone): 7.5 mm
O=C(O)c1csc(S(=O)(=O)Nc2ccc3[nH]c(=O)sc3c2)c1 [Compound 5] |  | > 500 µM | without any antibacterial activity whatever the strain | no growth inhibition | did not lead to any growth inhibition; also recorded: no growth inhibition | No | 338 ± 35 µM | 76 ± 13% | MIC ([1]; class symbol ND): ND (no growth inhibition detected up to 500 µM compound); growth inhibition [2]: No growth inhibition; growth inhibition [3]: no growth inhibition; growth inhibition (BacA-independent activity) (BWΔbacAΔtolC strain): did not display any antibacterial activity; growth inhibition [4]: did not display any antibacterial activity; growth inhibition upon bacA overexpression [5]: did not display any antibacterial activity
CC(C)Oc1ccc(NS(=O)(=O)c2cc(C(=O)O)cs2)cc1 [Compound 7] | 170 µg/mL | 500 µM | strong specificity towards BacA | total growth inhibition | no effect | No | 366 ± 73 µM | 80 ±10% | 
Cc1ccc(NS(=O)(=O)c2cc(C(=O)O)cs2)cc1C [Compound 2] | 155 µg/mL | 500 µM | strong specificity towards BacA | total growth inhibition | no effect | No | 132 ± 22 µM | 66± 17% | nature of the inhibition (compound versus substrate competition kinetics) (BacA; 25 to 300 µM substrate, 200 µM compound): non-competitive inhibitors
O=C(O)c1csc(S(=O)(=O)Nc2ccc(SCc3cccnc3)cc2)c1 [Compound 1, 5-{p-[(3-pyridyl)methylthio]phenylaminosulfonyl}-3-thenoic acid] |  |  | without any antibacterial activity whatever the strain |  | no growth inhibition | No |  |  | MIC ([1]; Escherichia coli, 125, 250 and 500 µM tested): > 500 µM; MIC ([1]; Escherichia coli, class symbol ND): > 500 µM
O=C(O)c1csc(S(=O)(=O)Nc2ccc3ccccc3c2)c1 [Compound 6] | 83 µg/mL | 250 µM | antibacterial activity on both strains | total growth inhibition | moderate inhibition | Yes | 151 ± 13 µM | 70 ± 18% | growth inhibition (BWΔtolC strain; 250 µM compound): no effect
